According to US20230212172A1, “ARYLACETAMIDE ANALOGS OF PIPERAZINE-[1,2,4]TRIAZOLO[4,3-B]PYRIDAZINES” (University of Vermont and State Agricultural College, priority 2020, published 2023):

Each compound was assayed on C. parvum (assay: In vitro inhibition of C. parvum development in HCT-8 cells). Settings: Cryptosporidium parvum; HCT-8 cells, Table 4; read-out: EC50 for inhibition of C. parvum development in HCT-8 cells.
Assay type: cell-based

SMILES | EC50
O=C(Cc1ccccc1Cl)N1CCN(c2ccc3nncn3n2)CC1 [Example 2178, 2-(2-chlorophenyl)-1-(4-{[1,2,4]triazolo[4,3-b]pyridazin-6-yl}piperazin-1-yl)ethan-1-one] | > 25000 nM
O=C(Cc1cccc2ccccc12)N1CCN(c2ccc3nncn3n2)CC1 [Example 2257, 2-(naphthalen-1-yl)-1-(4-{[1,2,4]triazolo[4,3-b]pyridazin-6-yl}piperazin-1-yl)ethan-1-one] | 17100 nM
O=C(Cc1ccc(Cl)c(F)c1)N1CCN(c2ccc3nncn3n2)CC1 [Example 2631, 2-(4-chloro-3-fluorophenyl)-1-(4-{[1,2,4]triazolo[4,3-b]pyridazin-6-yl}piperazin-1-yl)ethan-1-one] | 530 nM
O=C(Cc1ccc(F)cc1)N1CCN(c2ccc3nncn3n2)CC1 [Example 2632, 2-(4-fluorophenyl)-1-(4-{[1,2,4]triazolo[4,3-b]pyridazin-6-yl}piperazin-1-yl)ethan-1-one] | 1180 nM
O=C(Cc1c(Cl)cccc1Cl)N1CCN(c2ccc3nncn3n2)CC1 [Example 2720, 2-(2,6-dichlorophenyl)-1-(4-{[1,2,4]triazolo[4,3-b]pyridazin-6-yl}piperazin-1-yl)ethan-1-one] | > 25000 nM
O=C(Cc1ccc(Cl)cc1Cl)N1CCN(c2ccc3nncn3n2)CC1 [Example 2721, 2-(2,4-dichlorophenyl)-1-(4-{[1,2,4]triazolo[4,3-b]pyridazin-6-yl}piperazin-1-yl)ethan-1-one] | > 25000 nM
O=C(Cc1cc(Cl)ccc1Cl)N1CCN(c2ccc3nncn3n2)CC1 [Example 2746, 2-(2,5-dichlorophenyl)-1-(4-{[1,2,4]triazolo[4,3-b]pyridazin-6-yl}piperazin-1-yl)ethan-1-one] | 33000 nM
O=C(Cc1cc(Cl)cc(Cl)c1)N1CCN(c2ccc3nncn3n2)CC1 [Example 2747, 2-(3,5-dichlorophenyl)-1-(4-{[1,2,4]triazolo[4,3-b]pyridazin-6-yl}piperazin-1-yl)ethan-1-one] | 990 nM
O=C(Cc1ccc2ccccc2c1)N1CCN(c2ccc3nncn3n2)CC1 [Example 2749, 2-(naphthalen-2-yl)-1-(4-{[1,2,4]triazolo[4,3-b]pyridazin-6-yl}piperazin-1-yl)ethan-1-one] | 12400 nM
CC1CN(c2ccc3nncn3n2)CCN1C(=O)Cc1ccc(Cl)c(Cl)c1 (stereo not drawn) [Example 2752, 2-(3,4-dichlorophenyl)-1-(2-methyl-4-{[1,2,4]triazolo[4,3-b]pyridazin-6-yl}piperazin-1-yl)ethan-1-one] | 7440 nM
O=C(Cc1ccc([N+](=O)[O-])cc1)N1CCN(c2ccc3nncn3n2)CC1 [Example 2755, 2-(4-nitrophenyl)-1-(4-{[1,2,4]triazolo[4,3-b]pyridazin-6-yl}piperazin-1-yl)ethan-1-one] | 2580 nM
Cc1ccc(CC(=O)N2CCN(c3ccc4nncn4n3)CC2)cc1Cl [Example 2756, 2-(3-chloro-4-methylphenyl)-1-(4-{[1,2,4]triazolo[4,3-b]pyridazin-6-yl}piperazin-1-yl)ethan-1-one] | 1260 nM
Cc1ccc(CC(=O)N2CCN(c3ccc4nncn4n3)CC2)cc1F [Example 2757, 2-(3-fluoro-4-methylphenyl)-1-(4-{[1,2,4]triazolo[4,3-b]pyridazin-6-yl}piperazin-1-yl)ethan-1-one] | 5560 nM
Cc1cc(CC(=O)N2CCN(c3ccc4nncn4n3)CC2)ccc1Cl [Example 2758, 2-(4-chloro-3-methylphenyl)-1-(4-{[1,2,4]triazolo[4,3-b]pyridazin-6-yl}piperazin-1-yl)ethan-1-one] | 292 nM
Cc1cc(CC(=O)N2CCN(c3ccc4nncn4n3)CC2)ccc1F [Example 2759, 2-(4-fluoro-3-methylphenyl)-1-(4-{[1,2,4]triazolo[4,3-b]pyridazin-6-yl}piperazin-1-yl)ethan-1-one] | 335 nM
O=C(Cc1cccc(Br)c1)N1CCN(c2ccc3nncn3n2)CC1 [Example 2760, 2-(3-bromophenyl)-1-(4-{[1,2,4]triazolo[4,3-b]pyridazin-6-yl}piperazin-1-yl)ethan-1-one] | 2290 nM
COc1ccc(CC(=O)N2CCN(c3ccc4nncn4n3)CC2)cc1 [Example 2761, 2-(4-methoxyphenyl)-1-(4-{[1,2,4]triazolo[4,3-b]pyridazin-6-yl}piperazin-1-yl)ethan-1-one] | 16400 nM
COc1cccc(CC(=O)N2CCN(c3ccc4nncn4n3)CC2)c1 [Example 2762, 2-(3-methoxyphenyl)-1-(4-{[1,2,4]triazolo[4,3-b]pyridazin-6-yl}piperazin-1-yl)ethan-1-one] | 16400 nM
O=C(Cc1ccc(F)c(Cl)c1)N1CCN(c2ccc3nncn3n2)CC1 [Example 2763, 2-(3-chloro-4-fluorophenyl)-1-(4-{[1,2,4]triazolo[4,3-b]pyridazin-6-yl}piperazin-1-yl)ethan-1-one] | 240 nM
O=C(Cc1cccc(Cl)c1)N1CCN(c2ccc3nncn3n2)CC1 [Example 2764, 2-(3-chlorophenyl)-1-(4-{[1,2,4]triazolo[4,3-b]pyridazin-6-yl}piperazin-1-yl)ethan-1-one] | 3610 nM
O=C(C(=O)N1CCN(c2ccc3nncn3n2)CC1)c1ccc(Cl)c(Cl)c1 [Example 2765, 1-(3,4-dichlorophenyl)-2-(4-{ [1,2,4]triazolo[4,3-b]pyridazin-6-yl}piperazin-1-yl)ethane-1,2-dione] | 2250 nM
O=C(N1CCN(c2ccc3nncn3n2)CC1)C1(c2ccc(Cl)c(Cl)c2)CC1 [Example 2766, 1-[1-(3,4-dichlorophenyl)cyclopropanecarbonyl]-4-{[1,2,4]triazolo[4,3-b]pyridazin-6-yl}piperazine] | 8330 nM
O=C(Cc1ccc(Br)cc1)N1CCN(c2ccc3nncn3n2)CC1 [Example 2767, 2-(4-bromophenyl)-1-(4-{[1,2,4]triazolo[4,3-b]pyridazin-6-yl}piperazin-1-yl)ethan-1-one] | 1120 nM
O=C(Cc1ccc(COn2nnc3ccccc32)cc1)N1CCN(c2ccc3nncn3n2)CC1 [Example 2796, 2-{4-[(1H-1,2,3-benzotriazol-1-yloxy)methyl]phenyl}-1-(4-{[1,2,4]triazolo[4,3-b]pyridazin-6-yl}piperazin-1-yl)ethan-1-one] | > 25000 nM
N#Cc1ccc(CC(=O)N2CCN(c3ccc4nncn4n3)CC2)cc1 [Example 2797, 4-[2-oxo-2-(4-{[1,2,4]triazolo[4,3-b]pyridazin-6-yl}piperazin-1-yl)ethyl]benzonitrile] | 11000 nM
O=C(Cc1cccc(Cl)c1Cl)N1CCN(c2ccc3nncn3n2)CC1 [Example 2798, 2-(2,3-dichlorophenyl)-1-(4-{[1,2,4]triazolo[4,3-b]pyridazin-6-yl}piperazin-1-yl)ethan-1-one] | > 25000 nM
O=C(N1CCN(c2ccc3nncn3n2)CC1)C(F)(F)c1ccc(Cl)c(Cl)c1 [Example 2799, 2-(3,4-dichlorophenyl)-2,2-difluoro-1-(4-{[1,2,4]triazolo[4,3-b]pyridazin-6-yl}piperazin-1-yl)ethan-1-one] | 2300 nM

Same assay, conditions: Cryptosporidium parvum; average EC50, C. parvum in HCT-8 cells; read-out: Cp HTC-8 Avg EC50

SMILES | EC50
O=C(Cc1ccc(Cl)c(F)c1)N1CCN(c2ccc3nncn3n2)CC1 [Example 2631, 2-(4-chloro-3-fluorophenyl)-1-(4-{[1,2,4]triazolo[4,3-b]pyridazin-6-yl}piperazin-1-yl)ethan-1-one] | 530 nM
O=C(Cc1ccc(Cl)cc1)N1CCN(c2ccc3nncn3n2)CC1 [Example 2634, 2-(4-chlorophenyl)-1-(4-{[1,2,4]triazolo[4,3-b]pyridazin-6-yl}piperazin-1-yl)ethan-1-one] | 880 nM
O=C(Cc1cc(Cl)cc(Cl)c1)N1CCN(c2ccc3nncn3n2)CC1 [Example 2747, 2-(3,5-dichlorophenyl)-1-(4-{[1,2,4]triazolo[4,3-b]pyridazin-6-yl}piperazin-1-yl)ethan-1-one] | 990 nM
Cc1cc(CC(=O)N2CCN(c3ccc4nncn4n3)CC2)ccc1Cl [Example 2758, 2-(4-chloro-3-methylphenyl)-1-(4-{[1,2,4]triazolo[4,3-b]pyridazin-6-yl}piperazin-1-yl)ethan-1-one] | 279 nM
Cc1cc(CC(=O)N2CCN(c3ccc4nncn4n3)CC2)ccc1F [Example 2759, 2-(4-fluoro-3-methylphenyl)-1-(4-{[1,2,4]triazolo[4,3-b]pyridazin-6-yl}piperazin-1-yl)ethan-1-one] | 353 nM
O=C(Cc1ccc(F)c(Cl)c1)N1CCN(c2ccc3nncn3n2)CC1 [Example 2763, 2-(3-chloro-4-fluorophenyl)-1-(4-{[1,2,4]triazolo[4,3-b]pyridazin-6-yl}piperazin-1-yl)ethan-1-one] | 238 nM
